Where “and” joins values, the source holds several entries; their conditions need not be identical. Equal values may be shown once. One block for each compound: values may come before it.
Legend:
Format in all cases: in vivo
[1] = Excretion of [^18F]-radioactivity via urine and faeces in normal mice (gamma counter); conditions: i.v., decay corrected
Experimental: (§1) The biodistribution of [^18F]-2d and [^18F]-5d was investigated in healthy male NMRI mice (28.3-35.6 g body weight, n=3 animals per time point) at 2, 5, 30, 60 and 180/240 min after intravenous injection of 0.264 MBq [^18F]-2d and 0.268 MBq [^18F]-5d per animal, respectively. Until the indicated time points urine and faeces were quantitatively collected. At the respective time points the mice were sacrificed and the tissues were removed. [^18F]-radioactivity was analyzed in a gamma counter (Tab. 1.1, 2.1 and 1.2, 2.2).

[2] = Biodistribution of [^18F]-radioactivity in healthy male NMRI mice after intravenous injection (gamma counter); conditions: for Elimination from mouse brain, 2 min/30 min ratio of brain uptake (% ID/g): 2 min to 30 min; for [^18F]-radioactivity in adrenals / [^18F]-radioactivity in blood / [^18F]-radioactivity in bone / [^18F]-radioactivity in brain (brain uptake) / [^18F]-radioactivity in fat / [^18F]-radioactivity in heart / [^18F]-radioactivity in intestine / [^18F]-radioactivity in kidney / [^18F]-radioactivity in liver / [^18F]-radioactivity in lung / [^18F]-radioactivity in muscle / [^18F]-radioactivity in pancreas / [^18F]-radioactivity in skin / [^18F]-radioactivity in spleen / [^18F]-radioactivity in stomach / [^18F]-radioactivity in testes / [^18F]-radioactivity in thyroid: normal mice, i.v., decay corrected
Experimental: as §1

[3] = target: T1, peripheral benzodiazepine receptor (PBR) (Rattus norvegicus, UniProt P16257); test: Ex vivo autoradiography of brain sections, rat kainic acid induced epilepsy model; conditions: for Hipp/Cereb ratio (signal-to-background ratio, hippocampus/cerebellum): rat kainic acid model, 30 min ex vivo autoradiography
T1 construct: from tissue; host or cells: rat brain (hippocampus, cerebellum) after i.v. tracer injection
Experimental: Using a rat kainic acid induced epilepsy model and respective sham controls the accumulation of [^18F]-2d and [^18F]-5d was visualized ex vivo. In brief, epilepsy was induced in rats by injecting kainic acid i.p. At day eight after the start of the kainic acid treatment [^18F]-2d and [^18F]-5d were injected into the tail vein of the rats and their sham treated controls (PBS instead of kainic acid) at a dose of 25.8-35.8 MBq (approximately 1.0 μg) per rat. Thirty minutes after intravenous injection the rats were sacrificed, the brains were taken out, snap frozen and sliced transversally in a cryostat. The slices were exposed to PhosphoImager plates over night. The resulting autoradiographic signals were analyzed qualitatively and quantitatively (FIG. 2.1 A and C, 2.2 A and C). […] To determine the specificity of the [^18F]-2d and [^18F]-5d binding, kainic acid treated rats were co-injected with [^19F]-2e and [^19F]-5e, respectively.
The autoradiographic signals were quantified. The signal intensity in a hippocampal region of interest (ROI) was measured and compared to a ROI in the cerebellum, that was used as reference region.

- Excretion of [^18F]-radioactivity via faeces ([1]; 2 min): 0.00 ± 0.00 % injected dose
- Excretion of [^18F]-radioactivity via urine ([1]; 2 min): 0.02 ± 0.01 % injected dose
- Excretion of [^18F]-radioactivity via faeces ([1]; 5 min): 0.02 ± 0.03 % injected dose
- Excretion of [^18F]-radioactivity via urine ([1]; 5 min): 0.02 ± 0.01 % injected dose
- Excretion of [^18F]-radioactivity via faeces ([1]; 30 min): 0.01 ± 0.00 % injected dose
- Excretion of [^18F]-radioactivity via urine ([1]; 30 min): 1.72 ± 0.08 % injected dose
- Excretion of [^18F]-radioactivity via faeces ([1]; 60 min): 0.03 ± 0.03 % injected dose
- Excretion of [^18F]-radioactivity via urine ([1]; 60 min): 4.21 ± 0.39 % injected dose
- Excretion of [^18F]-radioactivity via faeces ([1]; 180 min): 0.59±0.61 % injected dose
- Excretion of [^18F]-radioactivity via urine ([1]; 180 min): 13.09±1.33 % injected dose
- Initial elimination of the radioactivity from the brain ([2]; mice, 30 min p.i.): ca. 72%
- Elimination from mouse brain, 2 min/30 min ratio of brain uptake (% ID/g) ([2]; mice): 3.7
- [^18F]-radioactivity in adrenals ([2]; 2 min): 7.37 ± 2.53 % injected dose/g
- [^18F]-radioactivity in blood ([2]; 2 min): 2.35 ± 0.15 % injected dose/g
- [^18F]-radioactivity in bone ([2]; 2 min): 0.87 ± 0.11 % injected dose/g
- [^18F]-radioactivity in brain (brain uptake) ([2]; 2 min): 1.37±0.04 % injected dose/g
- [^18F]-radioactivity in fat ([2]; 2 min): 0.41 ± 0.49 % injected dose/g
- [^18F]-radioactivity in heart ([2]; 2 min): 16.53 ± 0.48 % injected dose/g
- [^18F]-radioactivity in intestine ([2]; 2 min): 0.82 ± 0.04 % injected dose/g
- [^18F]-radioactivity in kidney ([2]; 2 min): 5.92 ± 1.40 % injected dose/g
- [^18F]-radioactivity in liver ([2]; 2 min): 1.20 ± 0.28 % injected dose/g
- [^18F]-radioactivity in lung ([2]; 2 min): 61.50 ± 10.42 % injected dose/g
- [^18F]-radioactivity in muscle ([2]; 2 min): 1.23 ± 0.47 % injected dose/g
- [^18F]-radioactivity in pancreas ([2]; 2 min): 1.91 ± 0.33 % injected dose/g
- [^18F]-radioactivity in skin ([2]; 2 min): 0.51 ± 0.14 % injected dose/g
- [^18F]-radioactivity in spleen ([2]; 2 min): 1.50 ± 0.20 % injected dose/g
- [^18F]-radioactivity in stomach ([2]; 2 min): 2.15 ± 1.25 % injected dose/g
- [^18F]-radioactivity in testes ([2]; 2 min): 0.48 ± 0.10 % injected dose/g
- [^18F]-radioactivity in thyroid ([2]; 2 min): 2.15 ± 1.49 % injected dose/g
- [^18F]-radioactivity in adrenals ([2]; 5 min): 10.39 ± 3.44 % injected dose/g
- [^18F]-radioactivity in blood ([2]; 5 min): 1.44 ± 0.07 % injected dose/g
- [^18F]-radioactivity in bone ([2]; 5 min): 1.30 ± 0.02 % injected dose/g
- [^18F]-radioactivity in brain (brain uptake) ([2]; 5 min): 0.95 ± 0.07 % injected dose/g
- [^18F]-radioactivity in fat ([2]; 5 min): 0.25 ± 0.06 % injected dose/g
- [^18F]-radioactivity in heart ([2]; 5 min): 17.09 ± 0.64 % injected dose/g
- [^18F]-radioactivity in intestine ([2]; 5 min): 1.36 ± 0.33 % injected dose/g
- [^18F]-radioactivity in kidney ([2]; 5 min): 7.45 ± 1.00 % injected dose/g
- [^18F]-radioactivity in liver ([2]; 5 min): 1.41 ± 0.26 % injected dose/g
- [^18F]-radioactivity in lung ([2]; 5 min): 34.75 ± 6.56 % injected dose/g
- [^18F]-radioactivity in muscle ([2]; 5 min): 1.58 ± 0.52 % injected dose/g
- [^18F]-radioactivity in pancreas ([2]; 5 min): 2.23 ± 0.60 % injected dose/g
- [^18F]-radioactivity in skin ([2]; 5 min): 0.60 ± 0.11 % injected dose/g
- [^18F]-radioactivity in spleen ([2]; 5 min): 4.78 ± 0.73 % injected dose/g
- [^18F]-radioactivity in stomach ([2]; 5 min): 1.89 ± 1.77 % injected dose/g
- [^18F]-radioactivity in testes ([2]; 5 min): 0.50 ± 0.15 % injected dose/g
- [^18F]-radioactivity in thyroid ([2]; 5 min): 2.65 ± 0.58 % injected dose/g
- [^18F]-radioactivity in adrenals ([2]; 30 min): 15.51 ± 0.48 % injected dose/g
- [^18F]-radioactivity in blood ([2]; 30 min): 0.70 ± 0.14 % injected dose/g
- [^18F]-radioactivity in bone ([2]; 30 min): 1.67 ± 0.32 % injected dose/g
- [^18F]-radioactivity in brain (brain uptake) ([2]; 30 min): 0.37±0.04 % injected dose/g
- [^18F]-radioactivity in fat ([2]; 30 min): 0.46 ± 0.10 % injected dose/g
- [^18F]-radioactivity in heart ([2]; 30 min): 7.94 ± 1.52 % injected dose/g
- [^18F]-radioactivity in intestine ([2]; 30 min): 2.15 ± 0.62 % injected dose/g
- [^18F]-radioactivity in kidney ([2]; 30 min): 10.99 ± 1.08 % injected dose/g
- [^18F]-radioactivity in liver ([2]; 30 min): 1.61 ± 0.43 % injected dose/g
- [^18F]-radioactivity in lung ([2]; 30 min): 10.66 ± 0.71 % injected dose/g
- [^18F]-radioactivity in muscle ([2]; 30 min): 1.80 ± 0.17 % injected dose/g
- [^18F]-radioactivity in pancreas ([2]; 30 min): 2.85 ± 0.03 % injected dose/g
- [^18F]-radioactivity in skin ([2]; 30 min): 0.98 ± 0.06 % injected dose/g
- [^18F]-radioactivity in spleen ([2]; 30 min): 6.98 ± 0.82 % injected dose/g
- [^18F]-radioactivity in stomach ([2]; 30 min): 3.49 ± 0.45 % injected dose/g
- [^18F]-radioactivity in testes ([2]; 30 min): 0.79 ± 0.11 % injected dose/g
- [^18F]-radioactivity in thyroid ([2]; 30 min): 3.95 ± 0.81 % injected dose/g
- [^18F]-radioactivity in adrenals ([2]; 60 min): 23.01 ± 8.20 % injected dose/g
- [^18F]-radioactivity in blood ([2]; 60 min): 0.60 ± 0.09 % injected dose/g
- [^18F]-radioactivity in bone ([2]; 60 min): 1.75 ± 0.09 % injected dose/g
- [^18F]-radioactivity in brain (brain uptake) ([2]; 60 min): 0.34 ± 0.02 % injected dose/g
- [^18F]-radioactivity in fat ([2]; 60 min): 0.49 ± 0.06 % injected dose/g
- [^18F]-radioactivity in heart ([2]; 60 min): 5.22 ± 0.61 % injected dose/g
- [^18F]-radioactivity in intestine ([2]; 60 min): 2.33 ± 0.34 % injected dose/g
- [^18F]-radioactivity in kidney ([2]; 60 min): 11.04 ± 0.48 % injected dose/g
- [^18F]-radioactivity in liver ([2]; 60 min): 1.56 ± 0.22 % injected dose/g
- [^18F]-radioactivity in lung ([2]; 60 min): 6.31 ± 0.34 % injected dose/g
- [^18F]-radioactivity in muscle ([2]; 60 min): 2.34 ± 0.23 % injected dose/g
- [^18F]-radioactivity in pancreas ([2]; 60 min): 2.56 ± 0.26 % injected dose/g
- [^18F]-radioactivity in skin ([2]; 60 min): 1.14 ± 0.06 % injected dose/g
- [^18F]-radioactivity in spleen ([2]; 60 min): 6.09 ± 0.50 % injected dose/g
- [^18F]-radioactivity in stomach ([2]; 60 min): 4.37 ± 0.51 % injected dose/g
- [^18F]-radioactivity in testes ([2]; 60 min): 0.84 ± 0.09 % injected dose/g
- [^18F]-radioactivity in thyroid ([2]; 60 min): 3.88 ± 0.10 % injected dose/g
- [^18F]-radioactivity in adrenals ([2]; 180 min): 13.74 ± 7.36 % injected dose/g
- [^18F]-radioactivity in blood ([2]; 180 min): 0.66 ± 0.09 % injected dose/g
- [^18F]-radioactivity in brain (brain uptake) ([2]; 180 min): 0.35 ± 0.02 % injected dose/g
- [^18F]-radioactivity in fat ([2]; 180 min): 2.02 ± 1.06 % injected dose/g
- [^18F]-radioactivity in heart ([2]; 180 min): 2.78 ± 0.18 % injected dose/g
- [^18F]-radioactivity in intestine ([2]; 180 min): 4.28 ± 0.94 % injected dose/g
- [^18F]-radioactivity in kidney ([2]; 180 min): 10.63 ± 1.41 % injected dose/g
- [^18F]-radioactivity in liver ([2]; 180 min): 1.29 ± 0.20 % injected dose/g
- [^18F]-radioactivity in lung ([2]; 180 min): 4.57 ± 1.44 % injected dose/g
- [^18F]-radioactivity in muscle ([2]; 180 min): 1.84 ± 0.29 % injected dose/g
- [^18F]-radioactivity in pancreas ([2]; 180 min): 1.76 ± 0.40 % injected dose/g
- [^18F]-radioactivity in skin ([2]; 180 min): 1.60 ± 0.19 % injected dose/g
- [^18F]-radioactivity in spleen ([2]; 180 min): 4.07 ± 0.51 % injected dose/g
- [^18F]-radioactivity in stomach ([2]; 180 min): 4.37 ± 0.68 % injected dose/g
- [^18F]-radioactivity in testes ([2]; 180 min): 1.14 ± 0.11 % injected dose/g
- [^18F]-radioactivity in thyroid ([2]; 180 min): 3.91 ± 0.75 % injected dose/g
- Hipp/Cereb ratio (signal-to-background ratio, hippocampus/cerebellum) [3]: 5.6 ± 1.8
SMILES: COc1ccc(Oc2ncccc2N(Cc2cc(OC)ccc2OCC[18F])C(C)=O)cc1 [[^18F]-2d, N-[2-(2-[^18F]fluoroethoxy)-5-methoxybenzyl]-N-[2-(4-methoxyphenoxy)pyridin-3-yl]acetamide]
- [^18F]-radioactivity in bone ([2]; 180 min): 2.3 % injected dose/g and 2.25 ± 0.20 % injected dose/g
- Specificity of binding: autoradiographic signal on co-injection of the corresponding [^19F] compound ([3]; kainic acid treated rats, co-injected with [^19F]-2e and [^19F]-5e, respectively): significantly reduced autoradiographic signal

- Elimination from mouse brain, 2 min/30 min ratio of brain uptake (% ID/g) ([2]; mice): 2.0
- Elimination from mouse brain, 2 min/30 min ratio of brain uptake (% ID/g) ([2]; mice, listed as FEDAA): 2.00
- Hipp/Cereb ratio (signal-to-background ratio, hippocampus/cerebellum) [3]: 1.2±0.2
SMILES: COc1ccc(OCC[18F])c(CN(C(C)=O)c2cc(F)ccc2Oc2ccccc2)c1 [[^18F]-FEDAA1106, reference compound]

- Elimination from mouse brain, 2 min/30 min ratio of brain uptake (% ID/g) ([2]; mice): 4.85
SMILES: COc1ccc(OCC[18F])c(CN(C(C)=O)c2cccnc2Cc2ccc(F)cc2)c1 [compound 21]

— patent publication US20110200535A1, “DAA-PYRIDINE AS PERIPHERAL BENZODIAZEPINE RECEPTOR LIGAND FOR DIAGNOSTIC IMAGING AND PHARMACEUTICAL TREATMENT” (BAYER SCHERING PHARMA AKTIENGESELLSCHAFT, priority 2008, published 2011)
